Experimental data from article PMC11494886, “Discovery and design of molecular glue enhancers of CDK12–DDB1 interactions for targeted degradation of cyclin K” (RSC Chemical Biology, 2024).
pEC50: −log10 of the molar value.

How the values were obtained:
HiBiT-tagged cyclin K = test: HiBiT cyclin K degradation assay (DC50, Dmax); assay type: cell-based; details: HiBiT-CCNK KI A549 cells, 2 hours
Protocol: Next, we utilized HiBiT technology (Promega) for quantitative analysis of cyclin K degrader activity. […] Importantly, knockout of CDK12 using CRISPR/Cas9 protected cyclin K from SR-4835-induced degradation (Fig. 1D). We verified the depletion of CDK12 in HEK-293T cells (Fig. S3, ESI ^†).
The HiBiT-CCNK KI A549 cells (Promega) were seeded in 384 well plate and treated with the test compounds for 2 hours in a dose dependent manner. Nano-Glo® HiBiT Lytic Detection System (Promega) composed of the Nano-Glo® HiBiT Lytic Substrate, Nano-Glo® HiBiT Lytic Buffer and LgBiT Protein was used as per the manufacturer's instructions. Briefly, a 2× Nano-Glo® HiBiT Lytic Detection Reagent mixture was prepared by adding 20 μL of Nano-Glo® HiBiT Lytic Substrate and 10 μL of LgBiT protein per every 1 mL of Nano-Glo® HiBiT Lytic Buffer. After incubating the cells with the 2× Nano-Glo® HiBiT Lytic Detection Reagent mixture, luminescence was measured. HiBiT tagged cyclin K present at any given concentration was measured by normalizing the luminescence signal at that concentration to the luminescence signal from the DMSO (control) cells. The concentration necessary to achieve a 50% reduction in cyclin K levels (DC50) and the maximum achievable reduction in cyclin K levels (Dmax) was computed from this assay.

HEK-293T cells = test: CellTiter-Glo viability assay, WT HEK-293T; assay type: cell-based; details: Homo sapiens, 72 hours, read-out: EC50 cell viability
Text: (§1) MDA-MB-231 (human triple-negative breast cancer cells) and HEK293T (human embryonic kidney cells) were purchased from the American type culture collection (ATCC) and maintained in Dulbecco's modified Eagle's medium (DMEM) (Gibco) supplemented with 10% (v/v) heat-inactivated fetal bovine serum (FBS) (Gibco) and penicillin/streptomycin (100 U mL^−1 each). HiBiT-CCNK KI A549 cells, purchased from Promega, were maintained in F12 medium supplemented with 10% (v/v) heat-inactivated fetal bovine serum (FBS) (Gibco) and penicillin/streptomycin (100 U mL^−1 each). DDB1-knockdown MDA-MB-231 and DDB1-knockdown HEK293T cell lines were maintained in the same media formulation as their corresponding wild-type cell lines. All cell lines were cultured at 37 °C in an incubator with CO2 levels maintained at 5%.
(§2) Cell viability was measured by Cell Titer Glo assay kit (Promega, USA). EC50 was determined from the nonlinear regression and a four-parameter algorithm on the GraphPad Prism software.

HEK-293TDDB1-shRNA cells = test: CellTiter-Glo viability assay, HEK-293T DDB1-shRNA; assay type: cell-based, human; details: 72 hours; for pEC50: Homo sapiens, HEK-293T DDB1 shRNA, CellTiter-Glo, read-out: EC50 cell viability
Text: (§3) For stable genetic knock-down of DDB1 in cells, predesigned and validated TRC2-pLKO-puro shRNA plasmids for DDB1 (TRCN0000082855 and TRCN0000082856), and a non-targeting shRNA plasmid (SHC001) were obtained from Millipore Sigma. All plasmids were purified using the Qiagen Maxiprep kit (Qiagen). FuGENE HD 6 transfection reagent (Promega) was used for transfection of plasmids and lentiviral gene/shRNA constructs. Mission lentiviral packaging mix (Millipore Sigma) was used to package lentiviral plasmids into lentiviral particles in HEK293T cells, as per manufacturer's protocols. The resultant virus was concentrated using Vivaspin 20 centrifugal concentrators (Sartorius). MDA-MB-231 and HEK293T cells were transduced with lentivirus. Stable knocked down DDB1 (shDDB1-231 and shDDB1-HEK293T) cells were generated after selection with the antibiotic puromycin, and genetic knockdown was confirmed by western blotting.
as §2

MDA-MB-231 cells = test: CellTiter-Glo viability assay, WT MDA-MB-231; assay type: cell-based; details: Homo sapiens; WT MDA-MB-231, 72 hours, CellTiter-Glo; read-out: EC50 cell viability
Text: as §1, §2

[1] = system: MDA-MB-231DDB1-shRNA cells; test: CellTiter-Glo viability assay, MDA-MB-231 DDB1-shRNA; assay type: cell-based, human; details: for pEC50: Homo sapiens, MDA-MB-231 DDB1 shRNA, 72 hours, CellTiter-Glo, read-out: EC50 cell viability
Text: as §3, §2

Cdk12/CycK = target: T1, Cdk12/CycK (Homo sapiens, UniProt Q9NYV4); test: Thermal stability (nanoDSF) of Cdk12/CycK; assay type: binding; details: Cdk12/CycK 5 μM, 3-fold molar excess of compound
T1 construct: GST (N, cleaved yes); made in house; host or cells: Sf9 insect cells (MultiBacTurbo), co-expressed with S. cerevisiae CAK1
T1 sequence (Q9NYV4 714-1063): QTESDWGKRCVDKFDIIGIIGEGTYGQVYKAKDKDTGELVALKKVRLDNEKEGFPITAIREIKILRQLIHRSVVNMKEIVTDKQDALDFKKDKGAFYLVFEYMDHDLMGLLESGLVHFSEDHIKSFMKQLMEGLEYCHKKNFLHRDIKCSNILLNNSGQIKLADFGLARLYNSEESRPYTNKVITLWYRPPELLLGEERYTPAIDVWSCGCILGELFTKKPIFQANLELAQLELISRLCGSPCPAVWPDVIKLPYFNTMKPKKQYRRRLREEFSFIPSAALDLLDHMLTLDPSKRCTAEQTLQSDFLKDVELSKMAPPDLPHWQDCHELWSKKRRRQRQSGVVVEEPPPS
T1 sequence (O75909 1-267 partner limits assumed): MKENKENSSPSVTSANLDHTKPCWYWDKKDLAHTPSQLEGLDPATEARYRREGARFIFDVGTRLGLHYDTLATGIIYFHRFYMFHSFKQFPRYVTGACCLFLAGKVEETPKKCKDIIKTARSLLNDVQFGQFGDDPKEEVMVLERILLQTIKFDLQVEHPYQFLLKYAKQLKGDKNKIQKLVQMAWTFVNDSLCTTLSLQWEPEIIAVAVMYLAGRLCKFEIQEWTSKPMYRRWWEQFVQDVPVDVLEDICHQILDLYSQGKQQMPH
Text: Synthetic genes, codon optimized for expression in Sf9 insect cells, comprising the kinase domain of human Cdk12 (residues 714–1063, UniProt accession number Q9NYV4) and cyclin box domains of human cyclin K (residues 1–267, UniProt accession number O75909) were purchased from GeneArt. The coding sequence of Cdk12 was integrated into the pACEBac1 acceptor vector, while CycK was introduced into pIDK donor vector. Both target vectors underwent modification, wherein a GST-affinity tag followed by a tobacco etch virus (TEV) protease cleavage site was introduced upstream of the protein coding sequence. A pIDC donor vector was employed to insert full-length CDK-activating kinase CAK1 (UniProt accession number P43568) from S. cerevisiae devoid of any affinity tag. Cre recombination was performed to combine all three vectors in vitro, resulting in fused vectors suitable for co-expression in Sf9 insect cells. […]
To investigate the thermal stability of proteins and protein complexes in solution, as well as to examine the impact of small molecular compounds on the proteins stability, the nano-differential scanning fluorimetry (nanoDSF) method was employed using a Prometheus NT.48 (NanoTemper) device. […] Thermal stability was monitored over a temperature range of 20–90 °C with a linear gradient of 1.5 °C min^−1, utilizing the PR.ThermControl software (NanoTemper). […]

DC50 (HiBiT-tagged cyclin K; read-out: DC50 (concentration for 50% reduction in cyclin K levels)) [nM] | pEC50 (MDA-MB-231 cells) | pEC50 [1] | ΔTm (elevation of melting temperature) (Cdk12/CycK) | fold change of EC50 (DDB1 shRNA vs WT) ([1]; MDA-MB-231 DDB1 shRNA vs WT MDA-MB-231, 72 hours) | SMILES | Dmax (maximum reduction in cyclin K levels) (HiBiT-tagged cyclin K; vs DMSO) [%] | pEC50 (HEK-293T cells) | pEC50 (HEK-293TDDB1-shRNA cells) | reduction in cyclin K levels (HiBiT-tagged cyclin K; dose-response) | fold change of EC50 (DDB1 shRNA vs WT) (HEK-293TDDB1-shRNA cells; HEK-293T DDB1 shRNA vs WT HEK-293T)
~90 | 7.26 | 6.66 | +4.1 °C | – | Cn1cc(-n2cnc3c(NCc4nc5cc(Cl)c(Cl)cc5[nH]4)nc(N4CCOCC4)nc32)cn1 [SR-4835] | > 95 | 6.73 | 5.70 | – | –
– | 7.14 | 7.19 | +4.15 °C | 0.9 | CN(C)C/C=C/C(=O)Nc1ccc(C(=O)N2CCC[C@@H](Nc3ncc(Cl)c(-c4c[nH]c5ccccc45)n3)C2)cc1 [THZ531, reference compound] | – | 6.89 | 6.64 | no reduction in cyclin K levels | ns
